From patent publication US10647664B2, “Substituted hydroxamic acid compounds” (Duke University, priority 2013, dated 2020)
Converted amounts (≈) assume the structure as drawn.

What was measured:
K. pneumonia (43816) = assay: MIC, K. pneumonia (43816); assay type: cell-based
Experimental: (§1) MICs are determined according to the NCCLS protocol using 96-well plates. Briefly, diluted bacterial cells (10^6 cells/mL) are added into each well of the 96-well plates containing LB medium with 5% DMSO and various concentrations of the compound of disclosure. After incubation of the plates for 22 hours at 37° C., [4,5-dimethylthiazol-2-yl]-2,5-diphenyltetrazolium bromide solution (MTT) is added (final concentration, 0.2 mg/mL) and incubated at 37° C. for another 3 hrs. MIC is determined as the lowest concentration of an antibiotic that prevented color change (yellow to purple).
(§2) Additional results of minimum inhibitory concentrations (MICs) using V. cholera (P4), S. typhimurium (LT2), and K. pneumonia (43816) are shown in Table 2

S. typhimurium (LT2) = assay: MIC, S. typhimurium (LT2); assay type: cell-based
Experimental: as §1, §2

P. aeruginosa PA01 = assay: MIC, P. aeruginosa PA01; assay type: cell-based; conditions: Pseudomonas aeruginosa
[1] = tested on: wild-type E. coli (W3110); assay: Minimum inhibitory concentration (MIC), E. coli W3110; assay type: cell-based; conditions: LB medium, 5% DMSO, 22 hours at 37° C., MTT; for MIC: Escherichia coli, 22 h
V. cholera (P4) = assay: MIC, V. cholera (P4); assay type: cell-based; design: unit not given beside the values
Experimental: as §1, §2

[2] = tested on: F. novicida U112 (FNU112); assay: microbe, parasite or virus in culture; assay type: cell-based; conditions: Francisella tularensis, read-out: MIC FNU112, F. novicida U112
[3] = tested on: N. gonorrhoeae 35/02 (drug-resistant strain); conditions: N. gonorrhoeae strain 35/02; description of the strain's resistance; cited from earlier work

Compound | MIC (P. aeruginosa PA01; PA01) | MIC [1] | MIC [2] | also measured
C[C@@H](O)[C@](C)(NC(=O)c1ccc(C#CC#Cc2ccc(N)cc2)cc1)C(=O)NO [Example 1, 4-((4-aminophenyl)buta-1,3-diynyl)-N-(3-hydroxy-1-(hydroxyamino)-2-methyl-1-oxobutan-2-yl)benzamide] | 15 µg/mL (≈ 38.3 µM) | 0.18 µg/mL (≈ 0.46 µM) |  | MIC K. pneumonia (43816) (K. pneumonia (43816)): 0.6; MIC S. typhimurium (LT2) (S. typhimurium (LT2)): 0.144; MIC (P. aeruginosa PA01; PA01, P. aeruginosa PA01): 6.25 µg/mL (≈ 16 µM); MIC E. coli W3110 [1]: 0.13 µg/mL (≈ 0.332 µM); MIC V. cholera (P4) (V. cholera (P4)): 0.03
CC(NC(=O)c1ccc(C#Cc2ccc(CN3CCOCC3)cc2)cc1)(C(=O)NO)C(C)(O)C(F)F (centres unmarked) [Example 2, N-(4,4-difluoro-3-hydroxy-1-(hydroxyamino)-2,3-dimethyl-1-oxobutan-2-yl)-4-((4-(morpholinomethyl)phenyl)ethynyl)benzamide] |  | 6.25 µg/mL (≈ 12.5 µM) | 50 µg/mL (≈ 99.7 µM) | 
C[C@@](O)(C(F)F)[C@H](NCCCc1ccc(C#Cc2ccccc2)cc1)C(=O)NO [Example 3, (2S,3S)-4,4-difluoro-N,3-dihydroxy-3-methyl-2-((3-(4-(phenylethynyl)phenyl)propyl)amino)butanamide] |  | 1.6 µg/mL (≈ 3.98 µM) |  | 
C[C@@](O)(C(F)F)[C@H](NC(=O)c1ccc(C#Cc2ccc(CN3CCNCC3)cc2)cc1)C(=O)NO [Example 19] | > 5 µg/mL | > 1 µg/mL | 2.5 µg/mL (≈ 5.14 µM) | 
C[C@@](O)(C(F)F)[C@H](NC(=O)c1ccc(C#CC#CCN2CCOCC2)cc1)C(=O)NO [Example 21, N-((2S,3S)-4,4-difluoro-3-hydroxy-1-(hydroxyamino)-3-methyl-1-oxobutan-2-yl)-4-(5-morpholinopenta-1,3-diyn-1-yl)benzamide] | 1.56 µg/mL (≈ 3.58 µM) | 0.46 µg/mL (≈ 1.06 µM) | > 5 µg/mL | 
CC(C#CC#Cc1ccc(C(=O)N[C@H](C(=O)NO)[C@](C)(O)C(F)F)cc1)N1CCOCC1 (stereo partly drawn) [Example 22, N-((2S,3S)-4,4-difluoro-3-hydroxy-1-(hydroxyamino)-3-methyl-1-oxobutan-2-yl)-4-(5-morpholinohexa-1,3-diyn-1-yl)benzamide] | 5 µg/mL (≈ 11.1 µM) | > 1 µg/mL | > 5 µg/mL | 
CC(CCn1ccc(C#Cc2ccccc2)cc1=O)(C(=O)NO)S(C)(=O)=O (centres unmarked) [Example 30, N-hydroxy-2-methyl-2-(methylsulfonyl)-4-(2-oxo-4-(phenylethynyl)pyridin-1 (2H)-yl)butanamide] | < 0.78 µg/mL | < 0.78 µg/mL |  | 
CO/N=C(\C(=O)N[C@@H]1C(=O)N2C(C(=O)O)=C(CSc3nc(=O)c(=O)[nH]n3C)CS[C@H]12)c1csc(N)n1 [ceftriaxone] |  |  |  | MIC [3]: 0.12 µg/mL (≈ 0.216 µM)
penicillin |  |  |  | MIC [3]: 6 µg/mL
